From patent US6451325B1, “Adjuvant formulation comprising a submicron oil droplet emulsion” (Chiron Corporation, priority 1989, dated 2002) come the findings set out here.

For the assay, the system named is influenza HA (Parke-Davis FLUOGEN). More on the design: species or system Goats. The conditions noted are these: in vivo.

Regarding `CCCCCCCCCCCCCCCC(=O)OC[C@H](COP(=O)(O)OCCNC(=O)[C@H](C)NC(=O)CC[C@@H](NC(=O)[C@H](C)NC(=O)[C@@H](C)O[C@H]1[C@H](O)[C@@H](CO)OC(O)[C@@H]1NC(C)=O)C(N)=O)OC(=O)CCCCCCCCCCCCCCC` (stereo partly drawn) [MTP-PE in PBS, N-acetylmuramyl-L-alanyl-D-isoglutaminyl-L-alanine-2-[1,2-dipalmitoyl-sn-glycero-3-(hydroxyphosphoryloxy)]ethylamide], the “stimulation of antibody titer after one immunization” value was “no stimulation of antibody titer”.
